One test concerns the target TcFPPS (Trypanosoma cruzi, UniProt Q8WS26). The format is biochemical.
Test [1] has as its system T. cruzi amastigotes. As to the kind of experiment: T. cruzi amastigote assay in Vero cells. The format is cell-based, Trypanosoma cruzi. Particulars: intracellular T. cruzi.
Test [2] deals with T. cruzi amastigotes. As to conditions: positive control; cited from earlier work.
Another test relates to T. gondii tachyzoites. Particulars: positive control, cited from earlier work.

Where two headings read alike, the source gives them in different places.

Take `CCCCCCCNCC(O)(P(=O)(O)O)P(=O)(O)O` [Compound 21, 1-[(n-Heptylamino)ethyl]-1-hydroxy-1,1-bisphosphonic Acid]: the “activity towards TcFPPS (in words)” value at TcFPPS is reported as “almost devoid of antiparasitic activity”. For the same molecule, the “activity against T. cruzi amastigotes (in words)” value with T. cruzi amastigotes [1] is on record as “almost devoid of antiparasitic activity”.
With `CCCCCCCSCC(P(=O)(O)O)P(=O)(O)O` [Compound 36, 1-[(n-Heptylthio)ethyl]-1,1-bisphosphonic Acid], on TcFPPS, the “activity towards TcFPPS (in words)” value is given as “devoid of anti-T. cruzi activity”. Moreover, in the test with T. cruzi amastigotes [1], the “activity against T. cruzi amastigotes (in words)” value is reported as “devoid of anti-T. cruzi activity”.
`O=P(O)(O)C(O)(Cc1cccnc1)P(=O)(O)O` [Risedronate, risedronate]: in the test with T. cruzi amastigotes [2], the “ED50 T. cruzi amastigotes” value was 55.0 ± 5.0 [68] μM. For the same molecule, the “ED50 T. gondii” value was 2.4 µM in the test with T. gondii tachyzoites (listed as risedronate) and 2.4 ± 0.7 [29] μM in the test on T. gondii tachyzoites.
As for `CCCCCC(C)NCC(P(=O)(O)O)P(=O)(O)O` (stereo not drawn) [Compound 18, 1-[(n-Hept-2-ylamino)ethyl] 1,1-bisphosphonic Acid], on TcFPPS, the “activity towards TcFPPS (in words)” value was “almost devoid of antiparasitic activity”. The “activity against T. cruzi amastigotes (in words)” value with T. cruzi amastigotes [1] is given as “almost devoid of antiparasitic activity”.

Source of the values: article PMC3582829 (European journal of medicinal chemistry, 2012).
